Results on 14 molecules are retold here after US9643999B2 (Bristol-Myers Squibb Company, priority 2012, dated 2017).

One assay deals with HCV genotype 1b replicon. Put plainly: HCV replicon luciferase reporter assay, genotype 1b (LE_1b). In kind it is cell-based. The settings on record: Hepatitis C virus, 72 h, HUH-7 cells, genotype 1b (Con1) replicon, 3 days incubation, Renilla luciferase. The text has this: An HCV replicon whole cell system was established as described by Lohmann V, Korner F, Koch J, Herian U, Theilmann L, Bartenschlager R., Science 285(5424):110-3 (1999) and modified to introduce a luciferase reporter, as first described by Krieger et al (Krieger N, Lohmann V, and Bartenschlager R, J. Virol. 75(10):4614-4624 (2001)). cDNA encoding a humanized form of the Renilla luciferase gene and a linker sequence fused directly to the 3′-end of the luciferase gene were introduced into the replicon construct using an Asc1 restriction site located in core, directly upstream of the neomycin marker gene. The adaptive mutation at position 1179 (serine to isoleucine) was also introduced (Blight K J, Kolykhalov, A A, Rice, C M, Science 290(5498):1972-1974). A stable cell line constitutively expressing this HCV replicon construct was generated by first linearizing plasmid DNAs with ScaI. RNA transcripts were synthesized in vitro using the T7 MegaScript transcription kit (Ambion, Austin, Tex.) according to manufacturer's directions. In vitro transcripts of the cDNA were transfected into the human hepatoma cell line, HUH-7. […] Resulting cell lines were characterized for positive and negative strand RNA production and protein production over time. […]
(§1) HCV replicon luciferase assays were developed to monitor the inhibitory effects of compounds described in the disclosure on HCV genotypes 1a and 1b viral replication. HUH-7 cells, constitutively expressing the HCV replicon, were grown in Dulbecco's Modified Eagle Media (DMEM) (Gibco-BRL) containing 10% Fetal calf serum (FCS) (Sigma) and 1 mg/mL G418 (Gibco-BRL). Compounds were serially diluted 3 folds in DMSO for a twenty-point titration and subsequently transferred to sterile 384-well tissue-culture treated plates (Corning cat #3571). The plates were then seeded with 50 μL of cells at a density of 3.0×10^3 cells/well in DMEM containing 4% FCS (final DMSO concentration at 0.5%). After 3 days incubation at 37° C., cells were analyzed for Renilla Luciferase activity using the EnduRen as substrate (Promega cat #E6485). The EnduRen substrate was diluted in DMEM and then added to the plates to a final concentration of 7.5 μM. The plates were incubated for 2 hrs at 37° C. and then read immediately for 30 seconds with Viewlux Imager (PerkinElmer) using a luminescence program. To assess cytotoxicity of compounds, CC50 values were generated by multiplexing the EnduRen-containing plates with Cell Titer-Blue (Promega, cat #G8082). Cell-Titer Blue (3 μL) was added to each well and incubated for 8 hrs at 37° C. The fluorescence signal from each well was read, with an excitation wavelength at 525/10 nm and an emission wavelength of 598/10 nm, using the Viewlux Imager.
(§2) The EC50 values for compounds were calculated by using a four-parameter logistic equation: y=A+((B−A)/(1+((C/x)^D))), where A and B denotes minimal and maximal % inhibition, respectively, C is the EC50, D is the hill slope and x represents compound concentration.

Another assay deals with HCV genotype 1a replicon. Put plainly: HCV replicon luciferase reporter assay, genotype 1a (LE_1a). In kind it is cell-based. Conditions: Hepatitis C virus, 72 h, HUH-7 cells, genotype 1a H77 replicon, 3 days incubation, Renilla luciferase.
Source text: An HCV replicon whole cell system was established as described by Lohmann V, Korner F, Koch J, Herian U, Theilmann L, Bartenschlager R., Science 285(5424):110-3 (1999) and modified to introduce a luciferase reporter, as first described by Krieger et al (Krieger N, Lohmann V, and Bartenschlager R, J. Virol. 75(10):4614-4624 (2001)). cDNA encoding a humanized form of the Renilla luciferase gene and a linker sequence fused directly to the 3′-end of the luciferase gene were introduced into the replicon construct using an Asc1 restriction site located in core, directly upstream of the neomycin marker gene. The adaptive mutation at position 1179 (serine to isoleucine) was also introduced (Blight K J, Kolykhalov, A A, Rice, C M, Science 290(5498):1972-1974). A stable cell line constitutively expressing this HCV replicon construct was generated by first linearizing plasmid DNAs with ScaI. RNA transcripts were synthesized in vitro using the T7 MegaScript transcription kit (Ambion, Austin, Tex.) according to manufacturer's directions. In vitro transcripts of the cDNA were transfected into the human hepatoma cell line, HUH-7. […] Resulting cell lines were characterized for positive and negative strand RNA production and protein production over time.
A stable HCV replicon luciferase reporter cell line representing the genotype 1a H77 strain (Yanagi M, Purcell R H, Emerson S U, et al. Transcripts from a single full-length cDNA clone of hepatitis C virus are infectious when directly transfected into the liver of a chimpanzee. Proc Natl Acad Sci USA 1997; 94(16):8738-8743) was generated as described previously for the genotype 1b(Con1) replicon luciferase cell line. The replicon construct was modified by introducing mutations were introduced into the genes encoding the NS3 helicase domain (proline replaced by leucine at position 1496) and NS5A (serine to isoleucine at position 2204) to improve replication in cell culture.
as §1, §2
Background: Replicon systems follow genome replication, usually without infectious particles.

Like-named read-outs stand apart in the source and are kept apart here.

A word on the EC50: it is the concentration giving half of the maximal effect.

For the molecule `C[C@@H]1CC/C=C\[C@@H]2C[C@@]2(C(=O)NS(=O)(=O)C2(C)CC2)NC(=O)[C@@H]2C[C@@H](Oc3nccc4c5c(ccc34)CCO5)CN2C(=O)[C@@H](NC(=O)OC(C)(C)C(F)(F)F)[C@H](C)C1` [Compound 5497], the EC50 was 1.01 to 5 nM in the assay with HCV genotype 1b replicon (read-out: LE_1b (EC50, range)) and 5.01 to 35 nM in the assay with HCV genotype 1a replicon (read-out: LE_1a (EC50, range)).
`CC[C@@H]1C[C@H](C)CC/C=C\[C@@H]2C[C@@]2(C(=O)NS(=O)(=O)C2CC2)NC(=O)[C@@H]2C[C@@H](Oc3nc4cc(OC)ccc4nc3C3CC3)CN2C(=O)[C@H]1NC(=O)OC(C)(C)C(F)(F)F` [Compound 4309]: the EC50 in the assay on HCV genotype 1b replicon (read-out: LE_1b (EC50)) is 2.31 nM; in the assay on HCV genotype 1b replicon (read-out: LE_1b (EC50, range)), 1.01 to 5 nM; in the assay on HCV genotype 1a replicon (read-out: LE_1a (EC50)), 3.51 nM; in the assay on HCV genotype 1a replicon (read-out: LE_1a (EC50, range)), 1.01 to 5 nM.
On to `COc1ccc2nc(O[C@@H]3C[C@H]4C(=O)N[C@]5(C(=O)NS(=O)(=O)C6(C)CC6)C[C@H]5/C=C\CC[C@@H](C)C[C@@H](C)[C@H](NC(=O)OC(C)(C)C)C(=O)N4C3)c(C3CC3)nc2c1` [Compound 4303], for which the EC50 in the assay on HCV genotype 1b replicon (read-out: LE_1b (EC50, range)) is 1.01 to 5 nM; in the assay with HCV genotype 1a replicon (read-out: LE_1a (EC50, range)), 1.01 to 5 nM.
Turning to `CC[C@@H]1C[C@H](C)CC/C=C\[C@@H]2C[C@@]2(C(=O)NS(=O)(=O)C2(C)CC2)NC(=O)[C@@H]2C[C@@H](Oc3nc4nccn4c4ccc(Cl)cc34)CN2C(=O)[C@H]1NC(=O)OC(C)(C)C(F)(F)F` [Compound 6133], the 50% effective concentration (EC50) was 0.51 to 1 nM in the assay with HCV genotype 1b replicon (read-out: LE_1b (EC50, range)) and 5.01 to 35 nM in the assay with HCV genotype 1a replicon (read-out: LE_1a (EC50, range)).
On the same counts, the results for `C[C@@H]1CC/C=C\[C@@H]2C[C@@]2(C(=O)NS(=O)(=O)C2(C)CC2)NC(=O)[C@@H]2C[C@@H](Oc3nccc4c5c(ccc34)CCO5)CN2C(=O)[C@@H](NC(=O)OC(C)(C)C(C)(F)F)[C@H](C)C1` [Compound 5495] are 0.51 to 1 nM and 1.01 to 5 nM.
On the same counts, the results for `CC[C@@H]1C[C@H](C)CC/C=C\[C@@H]2C[C@@]2(C(=O)NS(=O)(=O)C2CC2)NC(=O)[C@@H]2C[C@@H](Oc3nc4cccnc4nc3C(F)(F)F)CN2C(=O)[C@H]1NC(=O)OC(C)(C)C` [Compound 4329, tert-butyl((2R,6S,7R,9R,13aS,14aR,16aS,Z)-14a-((cyclopropylsulfonyl)carbamoyl)-7-ethyl-9-methyl-5,16-dioxo-2-((3-(trifluoromethyl)pyrido[2,3-b]pyrazin-2-yl)oxy)-1,2,3,5,6,7,8,9,10,11,13a,14,14a,15,16,16a-hexadecahydrocyclopropa[e]pyrrolo[1,2-a][1,4]diazacyclopentadecin-6-yl)carbamate] are 35 to 145 nM and 35 to 145 nM.
In the case of `[2H]C([2H])([2H])C1(S(=O)(=O)NC(=O)[C@@]23C[C@H]2/C=C\CC[C@@H](C)C[C@@H](CC)[C@H](NC(=O)OC(C)(C)C(C)(F)F)C(=O)N2C[C@H](Oc4nccc5cc(OC)c(F)cc45)C[C@H]2C(=O)N3)CC1` [Compound 5513], the EC50 with HCV genotype 1b replicon (read-out: LE_1b (EC50, range)) was in the range of 0.51 to 1 nM; with HCV genotype 1a replicon (read-out: LE_1a (EC50, range)), 1.01 to 5 nM.
With `[2H]C([2H])([2H])C1(S(=O)(=O)NC(=O)[C@@]23C[C@H]2/C=C\CC[C@@H](C)C[C@@H](CC)[C@H](NC(=O)OC(C)(C)C(F)F)C(=O)N2C[C@H](Oc4nccc5cc(OC)c(F)cc45)C[C@H]2C(=O)N3)CC1` [Compound 5515], the concentration giving a half-maximal response (EC50) in the assay with HCV genotype 1b replicon (read-out: LE_1b (EC50, range)) was 0.51 to 1 nM; in the assay on HCV genotype 1a replicon (read-out: LE_1a (EC50, range)), 1.01 to 5 nM.
On to `[2H]C([2H])([2H])C1(S(=O)(=O)NC(=O)[C@@]23C[C@H]2/C=C\CC[C@@H](C)C[C@@H](CC)[C@H](NC(=O)OC(C)(C)C(F)(F)F)C(=O)N2C[C@H](Oc4nccc5cc(OC)c(F)cc45)C[C@H]2C(=O)N3)CC1` [Compound 5511], for which the EC50 in the assay with HCV genotype 1b replicon (read-out: LE_1b (EC50, range)) was 1.01 to 5 nM; with HCV genotype 1a replicon (read-out: LE_1a (EC50, range)), 1.01 to 5 nM.
`CC[C@@H]1C[C@H](C)CC/C=C\[C@@H]2C[C@@]2(C(=O)NS(=O)(=O)C2(C)CC2)NC(=O)[C@@H]2C[C@@H](Oc3ncc(-c4cnco4)c4cc(OC)ccc34)CN2C(=O)[C@H]1NC(=O)OC(C)(C)C` [Compound 4285, tert-butyl((2R,6S,7R,9R,13aS,14aR,16aS,Z)-7-ethyl-2-((6-methoxy-4-(oxazol-5-yl)isoquinolin-1-yl)oxy)-9-methyl-14a-(((1-methylcyclopropyl)sulfonyl)carbamoyl)-5,16-dioxo-1,2,3,5,6,7,8,9,10,11,13a,14,14a,15,16,16a-hexadecahydrocyclopropa[e]pyrrolo[1,2-a][1,4]diazacyclopentadecin-6-yl)carbamate]: the concentration for a half-maximal effect (EC50) in the assay on HCV genotype 1b replicon (read-out: LE_1b (EC50, range)) was 1.01 to 5 nM; with HCV genotype 1a replicon (read-out: LE_1a (EC50, range)) it was 1.01 to 5 nM.
Take `CC[C@@H]1C[C@H](C)CC/C=C\[C@@H]2C[C@@]2(C(=O)NS(=O)(=O)C2(C)CC2)NC(=O)[C@@H]2C[C@@H](Oc3nc4cc(-c5ncc(C)o5)ccc4nc3C(F)(F)F)CN2C(=O)[C@H]1NC(=O)OC(C)(C)C(F)(F)F` [Compound 7003]: the EC50 in the assay on HCV genotype 1b replicon (read-out: LE_1b (EC50)) is 0.8 nM; with HCV genotype 1b replicon (read-out: LE_1b (EC50, range)), 0.51 to 1 nM; in the assay on HCV genotype 1a replicon (read-out: LE_1a (EC50)), 3.7 nM; with HCV genotype 1a replicon (read-out: LE_1a (EC50, range)) it was 1.01 to 5 nM.
Consider `[2H]C([2H])([2H])C1(S(=O)(=O)NC(=O)[C@@]23C[C@H]2/C=C\CC[C@@H](C)C[C@@H](CC)[C@H](NC(=O)OC(C)(C)C(F)F)C(=O)N2C[C@H](Oc4ncc(OC)c5ccccc45)C[C@H]2C(=O)N3)CC1` [Compound 5549], for which the 50% effective concentration (EC50) was in the range of 0.51 to 1 nM in the assay on HCV genotype 1b replicon (read-out: LE_1b (EC50, range)) and 0.51 to 1 nM with HCV genotype 1a replicon (read-out: LE_1a (EC50, range)).
Regarding `CC[C@@H]1C[C@H](C)CC/C=C\[C@@H]2C[C@@]2(C(=O)NS(=O)(=O)C2(C)CC2)NC(=O)[C@@H]2C[C@@H](Oc3ncc(N(CC)C(=O)c4ccccc4)c4cc(OC)ccc34)CN2C(=O)[C@H]1NC(=O)OC(C)(C)C(F)(F)F` [Compound 4264], the half-maximal effective concentration (EC50) in the assay on HCV genotype 1b replicon (read-out: LE_1b (EC50, range)) was 1.01 to 5 nM; in the assay on HCV genotype 1a replicon (read-out: LE_1a (EC50, range)) it was 1.01 to 5 nM.
Take `C[C@@H]1CC/C=C\[C@@H]2C[C@@]2(C(=O)NS(=O)(=O)C2(C)CC2)NC(=O)[C@@H]2C[C@@H](Oc3nccc4c5c(ccc34)CCO5)CN2C(=O)[C@@H](NC(=O)OC(C)(C)C)[C@H](C)C1` [Compound 5491, tert-butyl((2R,6S,7R,9R,13aS,14aR,16aS,Z)-2-((2,3-dihydrofuro[2,3-f]isoquinolin-6-yl)oxy)-7,9-dimethyl-14a-(((1-methylcyclopropyl)sulfonyl)carbamoyl)-5,16-dioxo-1,2,3,5,6,7,8,9,10,11,13a,14,14a,15,16,16a-hexadecahydrocyclopropa[e]pyrrolo[1,2-a][1,4]diazacyclopentadecin-6-yl)carbamate]: the half-maximal effective concentration (EC50) in the assay with HCV genotype 1b replicon (read-out: LE_1b (EC50)) was 2.57 nM; with HCV genotype 1b replicon (read-out: LE_1b (EC50, range)) it was 1.01 to 5 nM; with HCV genotype 1a replicon (read-out: LE_1a (EC50)) it was 5.41 nM; with HCV genotype 1a replicon (read-out: LE_1a (EC50, range)), 5.01 to 35 nM.
